Assay results as given in patent US12577247B2 (BUGWORKS RESEARCH, INC., priority 2021, dated 2026).

What was measured:
A2B receptor [1] = molecular target: T1, A2B receptor (Homo sapiens, UniProt P29275); assay: A2bR antagonism IC50, cAMP TR-FRET (Lance Ultra) in HEK-293 cells, NECA as agonist; assay type: cell-based; design: host or cells: HEK-293; settings: HEK-293 cells expressing A2B receptor; agonist NECA 30 nM (EC90); inhibition of cAMP
T1 sequence (P29275 1-332): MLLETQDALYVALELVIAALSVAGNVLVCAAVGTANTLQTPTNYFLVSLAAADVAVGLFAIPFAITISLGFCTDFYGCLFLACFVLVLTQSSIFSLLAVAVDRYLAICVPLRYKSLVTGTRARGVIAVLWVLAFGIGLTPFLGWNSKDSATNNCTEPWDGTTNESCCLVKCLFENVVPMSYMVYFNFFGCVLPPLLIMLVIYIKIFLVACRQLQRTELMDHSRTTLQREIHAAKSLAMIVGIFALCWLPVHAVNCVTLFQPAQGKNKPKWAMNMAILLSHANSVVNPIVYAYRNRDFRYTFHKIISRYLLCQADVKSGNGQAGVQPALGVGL

A2A receptor [2] = molecular target: T2, A2A receptor (Homo sapiens, UniProt P29274); assay: A2aR antagonism IC50, cAMP TR-FRET (Lance Ultra) in HEK-293 cells, NECA as agonist; assay type: cell-based; settings: A2AR IC50 (nM) (@5 nM NECA), HEK-293 cells expressing A2A receptor; agonist NECA 5 nM (EC90); inhibition of cAMP;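 also: compounds tested from 10 µM down to 0.08 nM in buffer with Rolipram at room temperature, TR-FRET cAMP signal read 1 h after adding Eu-cAMP tracer and ULight anti-cAMP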
T2 construct: host or cells: HEK-293

A2A receptor [3] = molecular target: T2, A2A receptor; assay: A2aR antagonism IC50, cAMP TR-FRET in HEK-293 cells, high concentration of adenosine (30 μM); assay type: cell-based; settings: HEK-293 cells expressing A2A receptor; agonist adenosine 30 μM; 2% HSA; inhibition of cAMP; read-out: A2AR IC50 (nM) (@30 μM Adenosine);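 also: compounds added 10 min before adenosine, then 30 min stimulation at room temperature in buffer with 100 µM rolipram and 30 µM EHNA, signal read 1 h after detection reagents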
Method: (§1) A Time-Resolved Fluorescence Energy Transfer (TR-FRET) assay was used to show the inhibition of this cAMP production in HEK cells upon treatment with compounds of the Formula I of the present disclosure.
(§2) HEK-293 cells expressing A2A receptor (#ES-011-C) or A2B receptor (#ES 013-C) were obtained from PerkinElmer. Cells were maintained in DMEM medium supplemented with 10% FBS and 200 μg/mL of G418 at 37° C. and 5% CO2. The cells were cultured in antibiotic free medium for a period of 16-20 hours prior to the assay. All subsequent steps of the assay are performed at room temperature (22-24° C.). […] About 1500 cells per well were pre-incubated for 10 minutes with the compounds of the present invention before adding the agonist Adenosine at a high concentration (30 μM) for a total stimulation time of 30 minutes. […] The assays were conducted in a stimulation buffer containing 1×DMEM, 5 mM HEPES, 2% Human serum albumin (HSA), 100 μM Rolipram and 30 μM erythro-9-(2-hydroxy-3-nonyl) adenine (EHNA). Serial dilutions of compounds were made in stimulation buffer to achieve a final concentration of high micromolar in a reaction volume of 10 μL. The total reaction volume was 10 μL (5 μL of cells, 2.5 μL of antagonist and 2.5 μL of agonist). […] The stimulation was ended, and the reaction completed by adding 5 μL of 4× Eu-cAMP tracer working solution and 5 μL of 4× ULight-anti-cAMP working solution. The TR FRET signal was measured after 1-hour incubation using a Tecan M1000 or a PerkinElmer Victor Nivo plate reader.

A2B receptor [4] = molecular target: T1, A2B receptor; assay: A2bR antagonism IC50, cAMP TR-FRET in HEK-293 cells, high concentration of adenosine (30 μM); settings: A2BR IC50 (nM) (@30 μM Adenosine), HEK-293 cells expressing A2B receptor; agonist adenosine 30 μM; 2% HSA; inhibition of cAMP;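 also: compounds preincubated 10 min with cells, then adenosine stimulation 30 min at room temperature in buffer with Rolipram 100 µM and EHNA 30 µM, TR-FRET read after 1 h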
Method: as §1, §2

T2 sequence (P29274 whole entry): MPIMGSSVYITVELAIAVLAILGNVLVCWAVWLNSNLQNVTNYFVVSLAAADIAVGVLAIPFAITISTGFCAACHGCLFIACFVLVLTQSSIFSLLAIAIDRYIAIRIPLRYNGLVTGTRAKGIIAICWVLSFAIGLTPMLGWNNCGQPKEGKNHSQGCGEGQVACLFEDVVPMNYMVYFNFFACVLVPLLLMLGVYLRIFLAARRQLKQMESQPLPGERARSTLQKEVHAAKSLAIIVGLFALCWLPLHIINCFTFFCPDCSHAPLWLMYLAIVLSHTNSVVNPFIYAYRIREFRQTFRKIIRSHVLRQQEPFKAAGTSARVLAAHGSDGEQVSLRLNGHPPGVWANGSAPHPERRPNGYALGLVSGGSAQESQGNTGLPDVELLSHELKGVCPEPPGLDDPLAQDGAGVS

Row | Compound | IC50 (A2B receptor [1]) [nM] | IC50 (A2A receptor [2]) [nM] | IC50 (A2A receptor [3]) [nM] | IC50 (A2B receptor [4]) [nM]
1 | Cc1nn2c(N)c(C#N)c(NCCc3ccc(F)cn3)nc2c1C [Example 11, 7-amino-5-((2-(5-fluoropyridin-2-yl)ethyl)amino)-2,3-dimethylpyrazolo[1,5-a]pyrimidine-6-carbonitrile] | 43 | 6.8 | – | –
2 | Cc1nn2c(N)c(C#N)c(NCCc3ccn(C4CCC4CO)n3)nc2c1Cl (stereo not shown) [Example 67, 7-amino-3-chloro-5-((2-(1-(2-(hydroxymethyl)cyclobutyl)-1H-pyrazol-3-yl)ethyl)amino)-2-methylpyrazolo[1,5-a]pyrimidine-6-carbonitrile] | – | 0.1 | 50 | 1880
3 | CCc1c(C)nn2c(N)c(C#N)c(N[C@H](C)c3ccccn3)nc12 [Example 3, (R)-7-Amino-3-ethyl-2-methyl-5-((1-(pyridin-2-yl)ethyl)amino) pyrazolo[1,5-a] pyrimidine-6-carbonitrile] | > 3000 | 1010 | – | –
4 | Cc1cccc(CCNc2nc3c(CC(C)C)c(C)nn3c(N)c2C#N)n1 [Example 27, 7-amino-3-(isopropylmethyl)-2-methyl-5-((2-(6-methylpyridin-2-yl)ethyl)amino) pyrazolo[1,5-a]pyrimidine-6-carbonitrile] | 654 | – | – | –
5 | CCc1c(C)nn2c(N)c(C#N)c(NC(C)Cc3ccccn3)nc12 (single isomer, unassigned) [Example 23, 7-Amino-3-ethyl-2-methyl-5-((1-(pyridin-2-yl)propan-2-yl)amino) pyrazolo[1,5-a]pyrimidine-6-carbonitrile] | 130 | 11 | – | –
6 | Cc1nn2c(N)c(C#N)c(NCCc3cccc(CO)n3)nc2c1CC1CC1 [Example 46, 7-amino-3-(cyclopropylmethyl)-5-((2-(6-(hydroxymethyl)pyridin-2-yl)ethyl)amino)-2-methylpyrazolo[1,5-a]pyrimidine-6-carbonitrile] | – | 1.9 | – | –
7 | Cc1nn2c(N)c(C#N)c(NCCc3ccn(C(C)(C)CO)n3)nc2c1C [Example 31, 7-amino-5-({2-[1-(1-hydroxy-2-methylpropan-2-yl)-1H-pyrazol-3-yl]ethyl}amino)-2,3-dimethylpyrazolo[1,5-a]pyrimidine-6-carbonitrile] | 51 | 0.73 | – | –
8 | CCc1nn2c(N)c(C#N)c(NCCc3cccc(C)n3)nc2c1C [Example 42, 7-amino-2-ethyl-3-methyl-5-((2-(6-methylpyridin-2-yl)ethyl)amino) pyrazolo[1,5-a]pyrimidine-6-carbonitrile] | 76 | 0.88 | – | –
9 | Cc1nn2c(N)c(C#N)c(NCc3cccc(C(C)(C)O)n3)nc2c1C [Example 9, 7-amino-5-({[6-(2-hydroxypropan-2-yl)pyridin-2-yl]methyl}amino)-2,3-dimethylpyrazolo[1,5-a] pyrimidine-6-carbonitrile] | 1130 | – | – | –
10 | Cc1c(C2CC2)nn2c(N)c(C#N)c(NCCc3cccc(C(C)(C)O)n3)nc12 [Example 47, 7-amino-2-cyclopropyl-5-((2-(6-(2-hydroxypropan-2-yl)pyridin-2-yl)ethyl)amino)-3-methylpyrazolo[1,5-a]pyrimidine-6-carbonitrile] | – | 7.2 | – | –
11 | Cc1cccc(CC(C)Nc2nc3c(C)c(C)nn3c(N)c2C#N)n1 (single isomer, unassigned) [Example 15, 7-amino-2,3-dimethyl-5-{[1-(6-methylpyridin-2-yl)propan-2-yl]amino}pyrazolo[1,5-a]pyrimidine-6-carbonitrile] | 102 | – | – | –
12 | CCc1c(C)nn2c(N)c(C#N)c(NCCc3cccn(CCCO)c3=O)nc12 [Example 113, 7-amino-3-ethyl-5-((2-(1-(3-hydroxypropyl)-2-oxo-1,2-dihydropyridin-3-yl)ethyl)amino)-2-methylpyrazolo[1,5-a]pyrimidine-6-carbonitrile] | – | – | 187 | 1050
13 | CCCc1c(C)nn2c(N)c(C#N)c(NCCc3ccn(C4COCC4CO)n3)nc12 (single isomer, unassigned; (+)) [Example 160a, (+) 7-amino-5-((2-(1-(4-(hydroxymethyl)tetrahydrofuran-3-yl)-1H-pyrazol-3-yl)ethyl)amino)-2-methyl-3-propylpyrazolo[1,5-a]pyrimidine-6-carbonitrile] | – | – | 579 | 1930

Now from value to compound:

Row | IC50 (A2B receptor [1]) [nM] | IC50 (A2A receptor [2]) [nM] | IC50 (A2A receptor [3]) [nM] | IC50 (A2B receptor [4]) [nM] | Compound
14 | 2.5 | – | – | – | CCc1c(C)nn2c(N)c(C#N)c(NC(C)Cc3cccc(C)n3)nc12 (racemic) [Example 24, 7-Amino-3-ethyl-2-methyl-5-((1-(6-methylpyridin-2-yl)propan-2-yl)amino) pyrazolo[1,5-a]pyrimidine-6-carbonitrile]
15 | 7 | – | 110 | 2340 | Cc1nn2c(N)c(C#N)c(NCCc3ccn(CC4CC(O)C4)n3)nc2c1Cl (racemic) [Example 82, (+−)-7-amino-3-chloro-5-((2-(1-((3-hydroxycyclobutyl)methyl)-1H-pyrazol-3-yl)ethyl)amino)-2-methylpyrazolo[1,5-a]pyrimidine-6-carbonitrile]
16 | 7.3 | – | 810 | 2800 | CCc1c(C)nn2c(N)c(C#N)c(NCCc3ccn(CC4(CO)CC4)n3)nc12 [Example 63, 7-amino-3-ethyl-5-((2-(1-((1-(hydroxymethyl)cyclopropyl)methyl)-1H-pyrazol-3-yl)ethyl)amino)-2-methylpyrazolo[1,5-a]pyrimidine-6-carbonitrile]
17 | 16 | 0.92 | – | – | Cc1nn2c(N)c(C#N)c(NCCc3ccn(CCO)n3)nc2c1Cl [Example 35]
18 | 0.87 | 0.15 | – | – | CCc1c(C)nn2c(N)c(C#N)c(N[C@@H](C)c3cccc(C)n3)nc12 [Example 5, (S)-7-Amino-3-ethyl-2-methyl-5-((1-(6-methylpyridin-2-yl)ethyl)amino) pyrazolo [1,5-a] pyrimidine-6-carbonitrile]
19 | 21 | 5 | – | – | CCc1c(C)nn2c(N)c(C#N)c(NCCc3nc(C4(CO)CC4)cs3)nc12 [Example 66]
20 | 4 | – | – | – | CCc1c(C)nn2c(N)c(C#N)c(NCCc3cccc(OC)n3)nc12 [Example 20, 7-Amino-3-ethyl-5-((2-(6-methoxypyridin-2-yl)ethyl)amino)-2-methylpyrazolo [1,5-a]pyrimidine-6-carbonitrile]
21 | 17 | 31 | – | – | Cc1cccc(CCNc2nc3c(C(C)C)c(C)nn3c(N)c2C#N)n1 [Example 28, 7-amino-3-(isopropyl)-2-methyl-5-((2-(6-methylpyridin-2-yl)ethyl)amino) pyrazolo[1,5-a]pyrimidine-6-carbonitrile]
22 | 0.94 | – | 211 | – | CCc1c(C)nn2c(N)c(C#N)c(NCCc3cccc(C4CC4CO)n3)nc12 (stereo not shown) [Example 60, 7-amino-3-ethyl-5-((2-(6-(2-(hydroxymethyl)cyclopropyl)284yridine-2-yl)ethyl)amino)-2-methylpyrazolo[1,5-a]pyrimidine-6-carbonitrile]
23 | 11 | – | 284 | 9070 | Cc1nn2c(N)c(C#N)c(NCCc3cccc(C(F)(F)CO)n3)nc2c1Cl [Example 64, 7-amino-3-chloro-5-((2-(6-(1,1-difluoro-2-hydroxyethyl)pyridin-2-yl)ethyl)amino)-2-methylpyrazolo[1,5-a]pyrimidine-6-carbonitrile]
24 | 3 | – | 211 | 1070 | CCc1c(C)nn2c(N)c(C#N)c(NCCc3ccn(CC4CC(O)C4)n3)nc12 (stereo not shown) [Example 85, 7-amino-3-ethyl-5-((2-(1-((3-hydroxycyclobutyl)methyl)-1H-pyrazol-3-yl)ethyl)amino)-2-methylpyrazolo[1,5-a] pyrimidine-6-carbonitrile]
25 | 4.5 | – | – | – | CCc1c(C)nn2c(N)c(C#N)c(NCCc3ccn(C)n3)nc12 [Example 30]
26 | 3.6 | – | 63 | 1050 | CCc1c(C)nn2c(N)c(C#N)c(NCCc3ccn(C(C)CO)n3)nc12 (stereo not shown) [Example 81, 7-amino-3-ethyl-5-((2-(1-(1-hydroxypropan-2-yl)-1H-pyrazol-3-yl)ethyl)amino)-2-methylpyrazolo[1,5-a]pyrimidine-6-carbonitrile]
27 | 9 | – | 1080 | – | CCc1c(C(F)F)nn2c(N)c(C#N)c(NCCc3cccc(C4CC4CO)n3)nc12 (stereo not shown) [Example 59, 7-amino-2-(difluoromethyl)-3-ethyl-5-((2-(6-(2-(hydroxymethyl)cyclopropyl)pyridin-2-yl)ethyl)amino)pyrazolo[1,5-a]pyrimidine-6-carbonitrile]
28 | 12 | – | 83 | 3800 | CCc1cnn2c(N)c(C#N)c(NCCc3cc(C)n(C4(CO)CC4)n3)nc12 [Example 80, 7-amino-3-ethyl-5-((2-(1-(1-(hydroxymethyl)cyclopropyl)-5-methyl-1H-pyrazol-3-yl)ethyl)amino) pyrazolo[1,5-a]pyrimidine-6-carbonitrile]
